Experimental data published in US20240132464A1, “HETEROCYCLIC COMPOUNDS AS E3 LIGASE INHIBITORS” (Accutar Biotechnology Inc., priority 2022, published 2024).
pIC50: −log10 of the molar value.

Target: T1, GID4 (Uniprot ID: Q81VV7, residues 124-289) (Homo sapiens, UniProt Q8IVV7)
T1 construct: GID4 (Uniprot ID: Q81VV7, residues 124-289)
T1 sequence (Q8IVV7 124-289): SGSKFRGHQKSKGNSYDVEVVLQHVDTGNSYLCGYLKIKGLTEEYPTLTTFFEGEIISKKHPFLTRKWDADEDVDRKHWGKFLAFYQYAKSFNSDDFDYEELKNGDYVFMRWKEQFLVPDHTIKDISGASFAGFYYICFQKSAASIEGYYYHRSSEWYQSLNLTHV
Assay: GID4 competitive binding assay (AlphaScreen, GID4/degron peptide PGLW)
Details: 24 nM GID4, 48 nM biotinylated degron peptide PGLW, 4° C., read-out: IC50 (Inhibition of GID4/Degron binding by test compounds)
How it was run: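 His-tagged human GID4 (residues 124-289, 24 nM) pre-incubated 2 h at 4 °C with 48 nM biotinylated PGLW peptide and compound in HEPES pH 7.5 buffer, 2% DMSO (final). AlphaScreen streptavidin donor/Ni-NTA acceptor beads added for 1 h; IC50 from nonlinear fit of % inhibition versus DMSO.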

Compound | pIC50
Nc1cc(N2CCN(CCO)[C@H](c3ccccc3Br)C2)nc(NC2CC2)n1 (stereo in doubt) [Compound 70, (R/S)-2-(4-(6-amino-2-(cyclopropylamino)pyrimidin-4-yl)-2-(2-bromophenyl)piperazin-1-yl)ethan-1-ol] | 5.30 to 6.30
CN(C)CCCNC(=O)c1ccc2c(-c3ccc4ccnc(N)c4c3)c[nH]c2c1 [Compound 359, 3-(1-aminoisoquinolin-7-yl)-N-(3-(dimethylamino)propyl)-1H-indole-6-carboxamide] | 5.30 to 6.30
Nc1nc(C2CC2)cc(N2CCN[C@@H](c3ccccc3Br)C2)n1 (stereo in doubt) [Compound 133, (S/R)-4-(3-(2-bromophenyl)piperazin-1-yl)-6-cyclopropylpyrimidin-2-amine] | 5.30 to 6.30
CC(C)c1nc(N)cc(N2CCCC(c3cnc4ccccn34)C2)n1 (single isomer, unassigned) [Compound 141, R or S-6-(3-(imidazo[1,2-a]pyridin-3-yl)piperidin-1-yl)-2-isopropylpyrimidin-4-amine] | > 6.30
Nc1cc(N2CCCC(c3cnc4ccccn34)C2)nc(N)n1 (single isomer, unassigned) [Compound 115, (S/R)-6-(3-(imidazo[1,2-a]pyridin-3-yl)piperidin-1-yl)pyrimidine-2,4-diamine] | < 5.30
Nc1cc(N2CCO[C@](CO)(c3ccccc3Br)C2)nc(N)n1 (stereo in doubt) [Compound 36, (R/S)-(2-(2-bromophenyl)-4-(2,6-diaminopyrimidin-4-yl)morpholin-2-yl)methanol] | < 5.30
Nc1cc(N2CCOC(c3cnc4ccccn34)C2)nc(N)n1 (racemic) [Compound 136, (R/S)-6-(2-(imidazo[1,2-a]pyridin-3-yl)morpholino)pyrimidine-2,4-diamine] | < 5.30
CC(C)c1cc(N2CCCC(F)(c3ccccc3Br)C2)nc(N)n1 (stereo not drawn) [Compound 233, 4-(3-(2-bromophenyl)-3-fluoropiperidin-1-yl)-6-isopropylpyrimidin-2-amine] | 5.30 to 6.30
CNc1cc(N2CCO[C@@H](c3ccccc3)C2)nc(N)n1 (racemic) [Compound 109, (S/R)-N4-methyl-6-(2-phenylmorpholino)pyrimidine-2,4-diamine] | 5.30 to 6.30
CC(C)c1cc(Nc2cccc(CC3CCNC3=O)c2)nc(N)n1 (stereo not drawn) [Compound 197, 3-(3-((2-amino-6-isopropylpyrimidin-4-yl)amino)benzyl)pyrrolidin-2-one] | < 5.30
CN(C)C1CCN(C(=O)c2n[nH]c3ccc(-c4ccc5ccnc(N)c5c4)cc23)CC1 [Compound 335, (5-(1-aminoisoquinolin-7-yl)-1H-indazol-3-yl)(4-(dimethylamino)piperidin-1-yl)methanone] | > 6.30
CC(C)c1cc(N2CCC=C(c3ncn4ccccc34)C2)nc(N)n1 [Compound 238, 4-(5-(imidazo[1,5-a]pyridin-1-yl)-3,6-dihydropyridin-1(2H)-yl)-6-isopropylpyrimidin-2-amine] | 5.30 to 6.30
CC(C)c1cc(N2CCCC(c3cnc4ccccn34)C2)c2nc[nH]c2n1 (stereo not drawn) [Compound 19, 7-(3-(imidazo[1,2-a]pyridin-3-yl)piperidin-1-yl)-5-isopropyl-3H-imidazo[4,5-b]pyridine] | > 6.30
CC(C)c1cc(N2CCCC(c3cnc4ccncn34)C2)nc(N)n1 (stereo not drawn) [Compound 239, 4-(3-(imidazo[1,2-c]pyrimidin-3-yl)piperidin-1-yl)-6-isopropylpyrimidin-2-amine] | 5.30 to 6.30
CC(C)c1cc(N2CCNC(c3ccc(F)cc3Br)C2)nc(N)n1 (stereo not drawn) [Compound 173, 4-(3-(2-bromo-4-fluorophenyl)piperazin-1-yl)-6-isopropylpyrimidin-2-amine] | > 6.30
CCOc1ccc(Br)c(C2CN(c3cc(N)nc(N)n3)CCN2)c1 (single isomer, unassigned) [Compound 23, (R/S)-6-(3-(2-bromo-5-ethoxyphenyl)piperazin-1-yl)pyrimidine-2,4-diamine] | 5.30 to 6.30
Nc1nc(N2CCN[C@@H](c3ccccc3Br)C2)c2cc[nH]c2n1 (racemic) [Compound 57, (S/R)-4-(3-(2-bromophenyl)piperazin-1-yl)-7H-pyrrolo[2,3-d]pyrimidin-2-amine] | 5.30 to 6.30
CC(C)c1cc(NCCc2c[nH]c3ccccc23)nc(N)n1 [Compound 203, N4-(2-(1H-indol-3-yl)ethyl)-6-isopropylpyrimidine-2,4-diamine] | < 5.30
CN(C)CCCNC(=O)c1ccc(-c2cc(O)c3ncccc3c2)c(F)c1 [Compound 325, N-(3-(dimethylamino)propyl)-3-fluoro-4-(8-hydroxyquinolin-6-yl)benzamide] | 5.30 to 6.30
Nc1nc(NC2CC2)cc(N2CCN[C@@H](c3ccccc3Br)C2)n1 (racemic) [Compound 122, (S/R)-6-(3-(2-bromophenyl)piperazin-1-yl)-N4-cyclopropylpyrimidine-2,4-diamine] | > 6.30
Nc1nc(NC2CC2)cc(N2CCNC(c3ccccc3Br)C2)n1 (single isomer, unassigned) [Compound 121, (R/S)-6-(3-(2-bromophenyl)piperazin-1-yl)-N4-cyclopropylpyrimidine-2,4-diamine] | < 5.30
Nc1cc(N2CCOC(c3ccccc3Br)C2)nc(N)n1 (single isomer, unassigned) [Compound 146, (S/R)-6-(2-(2-bromophenyl)morpholino)pyrimidine-2,4-diamine] | > 6.30
CN1CCC(NC(=O)c2n[nH]c3ccc(-c4ccc5ccnc(N)c5c4)cc23)CC1 [Compound 338, 5-(1-aminoisoquinolin-7-yl)-N-(1-methylpiperidin-4-yl)-1H-indazole-3-carboxamide] | > 6.30
Nc1cc(N2CCCC(c3n[nH]c4ccccc34)C2)nc(N)n1 (stereo not drawn) [Compound 246, 6-(3-(1H-indazol-3-yl)piperidin-1-yl)pyrimidine-2,4-diamine] | 5.30 to 6.30
CC(C)c1nc(N2CCNC(c3cnc4ccccn34)C2)c2cc[nH]c2n1 (stereo not drawn) [Compound 375, 4-(3-(imidazo[1,2-a]pyridin-3-yl)piperazin-1-yl)-2-isopropyl-7H-pyrrolo[2,3-d]pyrimidine] | > 6.30
Cn1cc(CNC(=O)c2n[nH]c3ccc(-c4ccc5ccnc(N)c5c4)cc23)cn1 [Compound 328, 5-(1-aminoisoquinolin-7-yl)-N-((1-methyl-1H-pyrazol-4-yl)methyl)-1H-indazole-3-carboxamide] | > 6.30
CC(C)c1cc(N2CCN(C)[C@@H](c3ccccc3Br)C2)nc(N)n1 (racemic) [Compound 161, (S/R)-4-(3-(2-bromophenyl)-4-methylpiperazin-1-yl)-6-isopropylpyrimidin-2-amine] | 5.30 to 6.30
CNc1cc(N2CCN(C)[C@H](c3ccccc3Br)C2)nc(NC)n1 (stereo in doubt) [Compound 80, (R/S)-6-(3-(2-bromophenyl)-4-methylpiperazin-1-yl)-N2,N4-dimethylpyrimidine-2,4-diamine] | 5.30 to 6.30
Cc1c(-c2ccc(C(=O)NCCCN(C)C)cc2)cc(O)c2ncccc12 [Compound 319, N-(3-(dimethylamino)propyl)-4-(8-hydroxy-5-methylquinolin-6-yl)benzamide] | 5.30 to 6.30
CC(C)c1cc(N2CCNC(c3ccccc3I)C2)nc(N)n1 (stereo not drawn) [Compound 176, 4-(3-(2-iodophenyl)piperazin-1-yl)-6-isopropylpyrimidin-2-amine] | > 6.30
